# From PubChem BioAssay (NCI)
#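 96-well plates; 48 h exposure; 5 concentrations. Endpoints by linear interpolation between flanking doses. Not reached: highest tested concentration assigned. At the GI50, growth is halved. The concentration for full growth arrest is given as TGI.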
# Columns and labels:
# Experiment in all cases: NCI anticancer screen, dose series, 48 h
# [1] = test system: ACHN renal
# [2] = test system: CCRF-CEM leukemia
# [3] = test system: DU-145 prostate
# [4] = test system: HS 578T breast
# [5] = test system: MDA-MB-231 breast
# [6] = test system: NCI-H522 lung
# [7] = test system: RXF 393 renal
# [8] = test system: SK-MEL-2 melanoma
# [9] = test system: UO-31 renal
# [10] = test system: MOLT-4 leukemia
Structure (SMILES),GI50 [1] [µM],TGI [1] [µM],GI50 [2] [µM],TGI [2] [µM],GI50 [3] [µM],TGI [3] [µM],GI50 [4] [µM],TGI [4] [µM],GI50 [5] [µM],TGI [5] [µM],GI50 [6] [µM],TGI [6] [µM],GI50 [7] [µM],TGI [7] [µM],GI50 [8] [µM],TGI [8] [µM],GI50 [9] [µM],TGI [9] [µM],TGI [10] [µM],GI50 [10] [µM]
CCOC(=O)c1ccc2c(c1)[n+](=O)c(C(=O)c1ccc3ccccc3c1)c(C(F)(F)F)n2[O-],1.47,2.93,0.4,2.29,1.78,3.16,1.57,3.62,1.58,3.15,0.458,1.87,1.73,3.26,1.82,3.4,1.3,2.57,,
CC1(C)CC(=O)C(C(c2cccc(O)c2O)C2C(=O)CC(C)(C)CC2=O)C(=O)C1,,> 100,,> 100,,> 100,,> 100,,> 100,,> 100,,> 100,,> 100,,,> 100,
CC1(C)CC[C@]2(C(=O)n3ccnc3)CC[C@]3(C)[C@H](C(=O)C=C4[C@@]5(C)C=C(C#N)C(=O)C(C)(C)[C@@H]5CC[C@]43C)[C@@H]2C1,< 0.0114,< 0.0172,< 0.01,0.0438,< 0.01,0.0174,,,0.0184,0.0682,0.0168,0.0585,0.0114,0.0536,< 0.0336,,< 0.0108,< 0.0174,< 0.01,< 0.01
O=C(CCc1nnc2s/c(=C\c3ccc4c(c3)OCO4)c(=O)n12)Nc1cc(Cl)ccc1Cl,,> 100,,> 100,,,,,,,,> 100,,> 100,,> 100,,> 100,> 100,
O=C(Nc1ccc(Cl)c(Cl)c1)C(=O)Nn1c(=S)[nH]c2ccccc2c1=O,,> 100,,> 100,,,,,,,,> 100,,> 100,,> 100,,> 100,> 100,
O=C1OC(c2ccccc2)C2CC3CC4(CCC3CN12)OCCO4 (centres undefined),,,,> 100,,,,,,,,1.57,,> 100,,> 100,,> 100,> 100,
CSC(=S)N/N=C/c1ccccc1,,> 100,,> 100,,> 100,,> 100,,> 100,,> 100,,76.9,,> 100,,> 100,,
Cc1cc(Cl)ccc1NC(=O)/C(Cl)=C(/Cl)C(=O)O,,36.1,,> 100,,61.4,,61.6,,47.8,,32.7,,36.3,,,,> 100,,
O=C(c1ccccc1)c1ccc(Cl)c([N+](=O)[O-])c1,7.14,21.3,3.18,13.5,3.69,11.7,17.5,95.3,3.61,11.7,1.41,6.18,,,2.96,6.89,2.25,5.34,22.3,4.17
